# In patent US20040053898A1, “Combination preparation with a erbeta selective estrogen and serm or antiestorgen” (priority 2000, published 2004):
# Legend:
# [1] = system: human estrogen receptor α (ERα) / human estrogen receptor β (ERβ); experiment: binding to human estrogen receptors α and β; settings: human ERα than human ERβ
# [2] = system: estrogen receptor preparations of rat prostates and rat uteri; experiment: estrogen receptor binding, 3H-estradiol competition, rat prostate versus rat uterus cytosol; settings: rat prostate ER versus rat uterus ER
# Method: The binding affinity of the new selective estrogens (ERβ-ligands) and SERMs was tested in competitive experiments with use of 3H-estradiol as a ligand in estrogen receptor preparations of rat prostates and rat uteri.
# ERβ compared to ERα = settings: in-vitro receptor binding test; cited from earlier work
SMILES,binding to human ERα relative to human ERβ (fold better) [1] [×],RBA value in rat prostate estrogen receptor relative to RBA value in rat uterus estrogen receptor (fold better) [2] [×],preference for ERβ compared to ERα (ERβ compared to ERα)
C[C@]12CC[C@@H]3c4ccc(O)cc4CC[C@H]3[C@@H]1C[C@@H](O)C2=O [16α-hydroxyestrone],3,5,–
O=c1c(-c2ccc(O)cc2)coc2cc(O)cc(O)c12 [genisteine],–,–,ERβ-selectivity
